Data on one compound can be found in US7320989B2, “Pyridine, pyrimidine, quinoline, quinazoline, and naphthalene urotensin-II receptor antagonists” (Encysive Pharmaceuticals, Inc., priority 2003, dated 2008).

SMILES strings stand for the structures.

For this test, the target named is T1, human urotensin-II receptor (UTR cells) (Homo sapiens, UniProt Q9UKP6).
T1 construct: host or cells: 'UTR cells': TE-671 rhabdomyosarcoma cells (endogenous) or CHO cells stably expressing recombinant UTR
T1 sequence (Q9UKP6 1-389): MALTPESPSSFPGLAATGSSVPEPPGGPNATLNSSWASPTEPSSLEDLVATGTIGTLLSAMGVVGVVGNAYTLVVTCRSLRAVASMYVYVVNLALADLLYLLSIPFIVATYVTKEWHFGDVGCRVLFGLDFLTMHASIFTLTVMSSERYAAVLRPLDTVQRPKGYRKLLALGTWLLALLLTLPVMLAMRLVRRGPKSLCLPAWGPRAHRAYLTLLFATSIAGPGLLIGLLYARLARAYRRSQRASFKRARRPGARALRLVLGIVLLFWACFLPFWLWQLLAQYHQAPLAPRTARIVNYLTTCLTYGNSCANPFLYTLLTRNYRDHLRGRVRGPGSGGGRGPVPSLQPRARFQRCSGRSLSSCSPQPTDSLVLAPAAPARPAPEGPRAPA
Put plainly: Inhibition of human urotensin-II-induced Ca2+ mobilization in UTR cells. It counts as cell-based. Conditions: inhibition of signal induced by 1 nM human U-II, fluo-4AM, FlexStation. The protocol:
1) Inhibition of Human Urotensin-II-Induced Ca^2+ Mobilization in UTR Cells:
The function of urotensin-II was determined by measuring ligand-induced mobilization of intracellular Ca^2+ in a FlexStation scanning fluorometer (Molecular Devices). UTR cells were plated overnight at 50,000 cells/well in 96-well black/clear plates (Costar brand, Fisher 07-200-588). Cells were labeled with fluo-4AM dye (Molecular Probes, F-14201) in Hank's balanced salt solution (HBSS), 20 mM HEPES, 25 mM probenecid, pH 7.4, and then were washed with buffer. During the assay, cells were continuously monitored in the FlexStation and exposed to test compounds at a final concentration of 0.1% DMSO, followed by the addition of 1 nM human U-II. Fluorescence was read every 2 seconds for 2 minutes. The excitation and emission wavelengths used were 485 nm and 525 nm. Inhibition of the urotensin-II-induced signal was calculated using a nonlinear least square fitting program.
Background: Calcium assays in cells follow changes in intracellular calcium, usually with a dye or a luminescent sensor.

Regarding `CN(C)CCOc1cc(Nc2ccnc3cc(C(F)(F)F)ccc23)ccc1Cl` [Example 7, (4-chloro-3-(2-dimethylamino-ethoxy)-phenyl)-(7-trifluoromethyl-quinolin-4-yl)-amine], the IC50 (in general, the concentration needed to halve the response being measured) was determined as 6.5 µM.
